Data set [1] has as its system ileocecal adenocarcinoma HCT-8. Kind of data set: Cytotoxicity assay, ileocecal adenocarcinoma HCT-8. The class given is cell-based. The note with it: Homo sapiens, 48 h, summary table, read-out: Test Cells at (ID 50), HCT-8. Here is the method: (§1) The following assay method was utilized to illustrate the antitumor effectiveness of compounds 1-7.
(§2) L1210 And P388 MOUSE LEUKEMIA CELL; ILEOCECAL ADENO CARCINOMA HCT-8; AND LUNG CARCINOMA A549; CYTOXICITY ASSAY 24-WELL PLATE SCREENING ASSAY AND TUBE ASSAY PROTOCOL
(§3) Media--Dulbeccos with glucose and pyruvate (Biologos, Inc) with 10% horse serum, (Biologos, Inc) and 1.0 ug/ml gentamicin (Gibco).
(§4) Finnpipette with 5 to 50 ul increments and Finnpipette with 50 to 200 ul increments.
(§5) 1. A sample of the composition to be assayed is added to each well or tube in an amount of from 200 ug/ml and 100 ug/ml for screening. For DDC of known active compounds use log concentrations from 100 ug/ml to 0.01 ug/ml for range-finding assay; when range has been determined, use five concentrations between highest and lowest active concentrations.
(§6) 2. Add 2.0 ml of 5×10^4 cell suspension in media to each well or tube. Tubes are loosely covered with parafilm.
(§7) 3. Incubate in 5% CO2 incubator 48 hours.
(§8) 4. Visually read plates with inverted microscope, comparing with solvent control. Assign activity as follows:
(§9) 1+=75-89% of control growth
(§10) 2+=50-74% of control growth
(§11) 3+=25-49% of control growth
(§12) 4+=<25% of control growth
(§13) Repeat all positive samples using tube assay.
(§14) 5. For Tube assays--Mix tube well on vortex and remove 0.5 ml aliquot and add to 9.5 ml nf diluent fluid (Isoton-Coulter) in Accuvette (Coulter) and mix well by inversion immediately before counting, taking care not to produce excessive bubbles. Count on Coulter Counter (Counter is set to count 0.5 ml of the solution, therefore counts may be converted to cell/ml in original assay tube by multiplying count by 40.
(§15) Positive control--Vinblastine or Vincristine in aqueous solution.

A further data set deals with lung carcinoma A549. Kind of data set: Cytotoxicity assay, lung carcinoma A549. The class given is cell-based. The note with it: Homo sapiens, 48 h, summary table, read-out: Test Cells at (ID 50), A549. The procedure: as §1, §2, §3, §4, §5, §6, §7, §8, §9, §10, §11, §12, §13, §14, §15
Data set [2] relates to P-388 murine leukemia cells. In words: Cytotoxicity assay, P388 mouse leukemia cells. In kind it is cell-based. Here is the method: as §1, §2, §3
(§16) Cells--L1210 and P-388 mouse leukemia cells (American Type Culture Collection) in media at a concentration of 5×10^4 cells/ml. Sterile 24-well culture plates (Nunc) for screening or 12×75 mm glass culture tubes (Becton-Dickinson) for tube assay. Microdispenser with 1 to 5 ul increments (Drummond Scientific Co. Broomall PA).
as §4, §5, §6, §7, §8, §9, §10, §11, §12, §13, §14, §15

In data set [3] the test system is L-1210 murine leukemia cells. Kind of data set: Cytotoxicity assay, L1210 mouse leukemia cells. The class given is cell-based. The following applies: for viability at 200 µg/mL: in vitro, at 200 micrograms per milliliter, read-out: survival, L-1210. The procedure:
as §1, §2, §3, §16, §4, §5, §6, §7, §8, §9, §10, §11, §12, §13, §14, §15

The subject of the next data set is HSV-I. Kind of data set: Antiviral assay: inhibition of HSV-I plaque formation (disks pushed into methyl cellulose overlay). The class given is cell-based, herpes simplex-I. The following applies: for 25 to 80 plaque forming units of virus cells. Here is the method:
The following assay method was utilized to illustrate the antiviral effectiveness of compound (1). (1) Remove 75 cm^2 culture flasks from incubator (these were plated the previous week). (2) Aspirate medium. (3) Wash with 10 ml PBSA or Puck's Saline. (4) Aspirate. (5) Wash a second time with 10 ml PBSA or Puck's Saline. (6) Aspirate. (7) Add 2 ml trypsin/EDTA. Incubate until cells detach (10-20 min). (8) Once detached, shake vigorously and immediately add 8 ml medium and shake again. (9) Count cells. (To 0.5 ml cell suspension add 0.1 ml trypan blue. Wait 5-10 minutes. Count 4 corner squares and middle square of 5×5 array in hemocytometer. Blue cells are dead. Total count per 10 ml in culture flask=# live cells×6×10^5). (10) Maintain cell line by adding 3×10^6 cells to another 75 cm^2 culture flask. Bring to 30 ml with fresh medium. (11) For assay, add 1×10^6 cells to each well (6 wells per culture dish). Bring each well to 2 ml with fresh medium. (12) Incubate overnight at 37° C. (1) Aspirate medium. […] (3) Incubate […] with a small amount of shaking. (4) Add 2 ml MC-4000 to each well. (5) Place disks on surface and push through (1 mg/disc, 0.5 mg/disc, 0.25 mg/disc, etc. for crude extracts). (6) Incubate 48 hr. (making sure dishes remain level). (1) Add 2 ml neutral red medium. (2) Incubate overnight. […]

The test system of the next data set is cells. In words: Zone of cytotoxicity in the antiviral disk assay. In kind it is cell-based. The following applies: read at Day 5, disk assay. The procedure: The following assay method was utilized to illustrate the antiviral effectiveness of compound (1).
(8) Once detached, shake vigorously and immediately add 8 ml medium and shake again.
(9) Count cells. (To 0.5 ml cell suspension add 0.1 ml trypan blue. Wait 5-10 minutes. Count 4 corner squares and middle square of 5×5 array in hemocytometer. Blue cells are dead. Total count per 10 ml in culture
(11) For assay, add 1×10^6 cells to each well (6 wells per culture dish). Bring each well to 2 ml with fresh medium.
(5) Place disks on surface and push through (1 mg/disc, 0.5 mg/disc, 0.25 mg/disc, etc. for crude extracts).
(6) Incubate 48 hr. (making sure dishes remain level).
(1) Add 2 ml neutral red medium.

Data set [4] can be described thus: Stability at room temperature. In kind it is physicochemical.
The mark [5] stands for this setting: P-388, summary table, read-out: Test Cells at (ID 50), P-388.
The mark [6] stands for this setting: in vitro, P-388 murine leukemia cells, read-out: estimated ID50 (dose which kills 50% of the cells), P-388.

In brackets after ≈: the same amount, converted by molar mass. Like-named read-outs stand apart in the source and are kept apart here.

`CC1(C)C=CC(=O)C(C(Cl)CBr)=C1` (stereo not drawn) [Composition 6]: the IC50 in data set [1] came to 5 µg/mL (≈ 19 µM); with lung carcinoma A549 it was 5 µg/mL (≈ 19 µM); in data set [2] (setting [5]), 0.5 µg/mL (≈ 1.9 µM).

Regarding `C=C(OC)C1=CC(C)(C)C=CC1=O` [Compound 2], the figures for the IC50 (in data set [1]; in the data set on lung carcinoma A549; in data set [2] (setting [5])) were 20 µg/mL (≈ 112 µM), 30 µg/mL (≈ 168 µM) and 5 µg/mL (≈ 28.1 µM), respectively. Moreover, the viability at 200 µg/mL in data set [3] was determined as 15%.

As to `CC(=O)OCC(Cl)C1=CC(C)(C)C=CC1=O` (stereo not drawn) [Compound 1], the IC50 is 10 µg/mL (≈ 41.2 µM) in data set [1], 20 µg/mL (≈ 82.4 µM) in the data set with lung carcinoma A549, 5 µg/mL (≈ 20.6 µM) in data set [2] (setting [5]) and 37 µg/mL (≈ 152 µM) in data set [2] (setting [6]). Further, the “minimal effective amounts (antiviral activity)” value in the data set with HSV-I lay in the range of 50 to 100 micrograms. In the data set with cells, the “zone of cytotoxicity as the diameter” value is given as 16 mm.

Consider `CC(=O)C1=CC(C)(C)C=CC1=O` [Compound 4], for which the IC50 is 5 µg/mL (≈ 30.4 µM) in data set [1], 5 µg/mL (≈ 30.4 µM) in the data set on lung carcinoma A549, 5 µg/mL (≈ 30.4 µM) in data set [2] (setting [5]) and 70 µg/mL (≈ 426 µM) in data set [2] (setting [6]). Further, in data set [3], the viability at 200 µg/mL stood at 41%.

With `COC(C)(OC)C1=CC(C)(C)C=CC1=O` [Compound 3], the IC50 in data set [1] was 30 µg/mL (≈ 143 µM); with lung carcinoma A549 it was 30 µg/mL (≈ 143 µM); in data set [2] (setting [5]), 10 µg/mL (≈ 47.6 µM); in data set [2] (setting [6]), 70 µg/mL (≈ 333 µM). In data set [3], the viability at 200 µg/mL is 17%.

As to `CC1(C)C=CC(=O)C(C2CO2)=C1` (stereo not drawn) [Compound 5], the IC50 in data set [1] is 5 µg/mL (≈ 30.4 µM); in the data set with lung carcinoma A549, 1 µg/mL (≈ 6.09 µM); in data set [3] (L-1210 murine leukemia cells, read-out: estimated ID50, L-1210), 0.7 µg/mL (≈ 4.26 µM); in data set [2] (setting [5]) it was 10 µg/mL (≈ 60.9 µM); in data set [2] (setting [6]), 5 µg/mL (≈ 30.4 µM). The viability at 200 µg/mL in data set [3] was determined as 25%.

In the case of `CC1(C)C=CC(=O)C(C(Cl)CO)=C1` (stereo not drawn) [Formula VIII], in data set [4], the decomposition result is “decompose at room temperature in two hours”.

These data come from US4708962A, “Antiviral and antitumor cyclohexadienone compositions” (Harbor Branch Oceanographic Institution, Inc., priority 1985, dated 1987).
